System: IL-6 production from A549 cells
Assay: Inhibitory activity on IL-6 production from A549 cells (TNF-α stimulated, ELISA)
Type: cell-based
Details: A549 cells (human lung epithelial cell line), TNF-α stimulation, 24 hours incubation, IL-6 in supernatant by ELISA; read-out: 50% inhibitory concentration (IC50) on IL-6 production
Procedure: According to following experiments, it is confirmed that the compound of the present invention has an inhibitory activity on IL-6 production. • (1) The Measurement of an Inhibitory Activity on IL-6 Production from A549 Cells Method:
1.5×10^4 of A549 cells (human lung epithelial cell line) were suspended in 100 μL of Dulbecco's Modified Eagle Medium (DMEM) containing 0.5% fetal bovine serum (abbreviated as FBS) and incubated for a day and night in 96 well-microplate. 20 μL of the test compound dissolved in dimethylsulfoxide (DMSO) at various concentrations and 80 μl of tumor necrosis factor-α (TNF-α (Genzyme Co., cat. No. TNF-H)) dissolved in serum-free DMEM at the concentration of 12.5 ng/mL were added thereto. After the incubation for 24 hours, the supernatant (100 μL) was collected to measure the amount of IL-6 being produced using enzyme linked immuno […] assay (ELISA) (R&D Systems Co., cat. No. D6050). Then the inhibitory activity of the test compound was calculated and the 50% inhibitory concentration (IC50) was determined.

IC50: 180 nM
SMILES: O=C(CCCCCNC(=O)c1ccc(-c2ccccc2)cc1)NO [Example 2]
